What was measured:
[1] = DRUGMATRIX: Phosphodiesterase PDE4 enzyme inhibition (substrate: [3H]cAMP + cAMP); conditions: u-937; Not Active = under 50% inhibition at 10 µM
[2] = DRUGMATRIX: Leukotriene, BLT (LTB4) radioligand binding (ligand: [3H]LTB4); type: cell membranes, Membrane; conditions: u-937, Not Active = under 50% inhibition at 10 µM
[3] = target: Beta-1 adrenergic receptor (Homo sapiens, UniProt P08588); experiment: DRUGMATRIX: Adrenergic beta1 radioligand binding (ligand: [125I] Cyanopindolol); type: cell membranes, CHO-K1, Membrane; conditions: cho-k1; Not Active = under 50% inhibition at 10 µM
Estrogen receptor = target: T1, Estrogen receptor (Homo sapiens, UniProt P03372); conditions: sf9; also: in other assays of this panel Not Active means under 50% inhibition at 10 µM
T1 sequence (P03372 whole entry): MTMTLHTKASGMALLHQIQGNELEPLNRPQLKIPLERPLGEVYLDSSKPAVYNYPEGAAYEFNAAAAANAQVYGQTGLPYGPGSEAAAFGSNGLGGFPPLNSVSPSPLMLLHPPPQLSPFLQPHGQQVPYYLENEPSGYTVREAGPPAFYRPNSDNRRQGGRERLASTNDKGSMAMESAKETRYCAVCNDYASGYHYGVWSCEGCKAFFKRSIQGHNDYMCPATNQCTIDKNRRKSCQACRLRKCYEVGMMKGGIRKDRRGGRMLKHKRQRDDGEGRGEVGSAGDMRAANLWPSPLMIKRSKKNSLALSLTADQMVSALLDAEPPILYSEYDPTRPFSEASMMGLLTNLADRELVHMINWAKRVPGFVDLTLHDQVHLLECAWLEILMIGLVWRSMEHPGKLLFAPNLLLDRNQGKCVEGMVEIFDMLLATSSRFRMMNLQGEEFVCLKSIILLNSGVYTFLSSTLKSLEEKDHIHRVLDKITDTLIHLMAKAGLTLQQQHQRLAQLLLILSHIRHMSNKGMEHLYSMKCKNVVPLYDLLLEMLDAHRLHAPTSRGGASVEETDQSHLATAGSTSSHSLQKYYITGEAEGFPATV

[4] = target: T2, Alpha-1B adrenergic receptor (Rattus norvegicus, UniProt P15823); experiment: DRUGMATRIX: Alpha-1B adrenergic receptor radioligand binding (ligand: prazosin); type: cell membranes, Wistar, Liver, Membrane; conditions: Not Active = under 50% inhibition at 10 µM
T2 sequence (P15823 whole entry): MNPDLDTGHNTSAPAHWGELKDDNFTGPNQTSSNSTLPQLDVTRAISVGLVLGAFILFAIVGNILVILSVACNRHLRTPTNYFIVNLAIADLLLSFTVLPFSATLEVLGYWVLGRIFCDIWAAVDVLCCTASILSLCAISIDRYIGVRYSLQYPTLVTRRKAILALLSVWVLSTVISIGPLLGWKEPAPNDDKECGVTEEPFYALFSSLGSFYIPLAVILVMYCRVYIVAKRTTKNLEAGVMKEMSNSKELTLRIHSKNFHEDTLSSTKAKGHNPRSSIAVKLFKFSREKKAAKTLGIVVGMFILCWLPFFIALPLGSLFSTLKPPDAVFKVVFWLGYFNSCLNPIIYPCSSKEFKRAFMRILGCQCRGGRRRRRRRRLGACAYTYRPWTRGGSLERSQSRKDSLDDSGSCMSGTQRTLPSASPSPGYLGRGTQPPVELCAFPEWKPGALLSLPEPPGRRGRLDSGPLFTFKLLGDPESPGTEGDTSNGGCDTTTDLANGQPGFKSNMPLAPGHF

Insulin receptor = Insulin receptor (Rattus norvegicus, UniProt P15127); type: cell membranes, Wistar, Liver, Membrane; also: in other assays of this panel Not Active means under 50% inhibition at 10 µM
Chain of Insulin receptor (P15127 27-759 limits assumed): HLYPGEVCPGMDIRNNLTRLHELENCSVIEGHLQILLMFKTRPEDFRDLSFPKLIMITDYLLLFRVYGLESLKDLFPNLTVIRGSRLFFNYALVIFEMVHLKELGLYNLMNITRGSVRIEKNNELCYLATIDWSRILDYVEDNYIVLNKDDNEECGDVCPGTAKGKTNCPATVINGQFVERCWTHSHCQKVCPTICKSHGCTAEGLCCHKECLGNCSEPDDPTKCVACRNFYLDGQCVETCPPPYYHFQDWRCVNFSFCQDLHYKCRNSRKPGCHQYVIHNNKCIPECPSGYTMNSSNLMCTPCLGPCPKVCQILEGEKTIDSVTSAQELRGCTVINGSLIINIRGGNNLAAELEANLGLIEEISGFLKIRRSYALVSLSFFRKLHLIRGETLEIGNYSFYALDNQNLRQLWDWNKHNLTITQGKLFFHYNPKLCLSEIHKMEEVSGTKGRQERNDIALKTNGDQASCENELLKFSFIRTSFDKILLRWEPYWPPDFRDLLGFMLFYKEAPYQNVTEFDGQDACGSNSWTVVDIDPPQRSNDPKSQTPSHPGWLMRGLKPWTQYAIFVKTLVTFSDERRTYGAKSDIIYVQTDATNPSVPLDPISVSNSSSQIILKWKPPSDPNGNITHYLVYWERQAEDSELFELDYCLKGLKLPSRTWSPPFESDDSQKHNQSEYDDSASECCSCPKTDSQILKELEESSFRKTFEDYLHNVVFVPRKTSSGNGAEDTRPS
Chain of Insulin receptor (P15127 764-1383 limits assumed): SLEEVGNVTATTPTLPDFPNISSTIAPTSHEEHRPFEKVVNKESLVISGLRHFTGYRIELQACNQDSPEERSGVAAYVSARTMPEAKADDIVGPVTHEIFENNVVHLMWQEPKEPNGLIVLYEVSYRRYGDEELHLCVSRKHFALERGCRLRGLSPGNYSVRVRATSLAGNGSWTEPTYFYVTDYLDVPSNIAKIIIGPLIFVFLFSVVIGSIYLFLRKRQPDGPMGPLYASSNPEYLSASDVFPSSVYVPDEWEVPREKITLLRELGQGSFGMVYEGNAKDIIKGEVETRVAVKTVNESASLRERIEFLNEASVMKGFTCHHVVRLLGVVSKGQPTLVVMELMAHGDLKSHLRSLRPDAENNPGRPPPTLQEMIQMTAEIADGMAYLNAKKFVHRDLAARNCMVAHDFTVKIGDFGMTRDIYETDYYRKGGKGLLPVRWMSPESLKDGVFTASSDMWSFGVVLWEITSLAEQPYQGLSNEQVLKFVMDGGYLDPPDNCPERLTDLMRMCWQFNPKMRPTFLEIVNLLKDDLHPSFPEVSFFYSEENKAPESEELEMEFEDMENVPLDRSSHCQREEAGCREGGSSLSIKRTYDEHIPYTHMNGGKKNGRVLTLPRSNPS

Chain of Beta-1 adrenergic receptor (P08588 whole entry): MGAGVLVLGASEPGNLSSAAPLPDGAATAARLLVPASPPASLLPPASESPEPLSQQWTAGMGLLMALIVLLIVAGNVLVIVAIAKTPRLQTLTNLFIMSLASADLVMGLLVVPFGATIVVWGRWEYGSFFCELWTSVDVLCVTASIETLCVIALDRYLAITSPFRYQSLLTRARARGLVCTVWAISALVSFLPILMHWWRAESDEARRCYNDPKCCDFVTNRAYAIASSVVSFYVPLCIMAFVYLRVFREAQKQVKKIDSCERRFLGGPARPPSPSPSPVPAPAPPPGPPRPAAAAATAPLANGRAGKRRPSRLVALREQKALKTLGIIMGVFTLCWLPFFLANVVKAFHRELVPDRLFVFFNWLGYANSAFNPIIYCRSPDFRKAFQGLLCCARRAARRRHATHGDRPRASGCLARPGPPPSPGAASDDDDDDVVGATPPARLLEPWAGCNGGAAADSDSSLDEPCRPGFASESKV

| Compound | IC50 [1] | Ki [1] | IC50 [2] | Ki [2] | IC50 [3] | IC50 (Estrogen receptor) | IC50 [4] | IC50 (Insulin receptor) | IC50 ([2]; read-out: IC50) [nM] | Ki ([2]; read-out: Ki) [nM] | IC50 ([4]; read-out: IC50) [nM] | Ki ([4]; read-out: Ki) [nM] | Ki [3] | Ki (Estrogen receptor) | Ki [4] | Ki (Insulin receptor) |
| --- | --- | --- | --- | --- | --- | --- | --- | --- | --- | --- | --- | --- | --- | --- | --- | --- |
| NC(=O)c1cccc(N)c1 [3-AMINOBENZAMIDE] | Not Active | Not Active | Not Active | Not Active | Not Active | Not Active | Not Active | Not Active | – | – | – | – | – | – | – | – |
| CC(=O)OC[C@H]1O[C@@H](n2ncc(=O)[nH]c2=O)[C@H](OC(C)=O)[C@@H]1OC(C)=O [AZARIBINE] | Not Active | Not Active | Not Active | Not Active | Not Active | Not Active | Not Active | Not Active | – | – | – | – | – | – | – | – |
| CCC1=C(C)CN(C(=O)NCCc2ccc(S(=O)(=O)NC(=O)N[C@H]3CC[C@H](C)CC3)cc2)C1=O [GLIMEPIRIDE] | Not Active | Not Active | Not Active | Not Active | Not Active | Not Active | Not Active | Not Active | – | – | – | – | – | – | – | – |
| O=C(O)CCCc1cccs1 | Not Active | Not Active | Not Active | Not Active | Not Active | Not Active | Not Active | Not Active | – | – | – | – | – | – | – | – |
| Cc1ccc(C)c(OCCCC(C)(C)C(=O)O)c1 [GEMFIBROZIL] | Not Active | Not Active | Not Active | Not Active | Not Active | Not Active | Not Active | Not Active | – | – | – | – | – | – | – | – |
| NNCCc1ccccc1 [PHENELZINE] | Not Active | Not Active | Not Active | Not Active | Not Active | Not Active | Not Active | Not Active | – | – | – | – | – | – | – | – |
| O=C(O)CCNC(=O)c1ccc(/N=N/c2ccc(O)c(C(=O)O)c2)cc1 [BALSALAZIDE] | Not Active | Not Active | Not Active | Not Active | Not Active | Not Active | Not Active | Not Active | – | – | – | – | – | – | – | – |
| O=C(c1ccccc1F)N1CCC(Cc2ccccc2)CC1 | Not Active | Not Active | Not Active | Not Active | Not Active | Not Active | Not Active | Not Active | – | – | – | – | – | – | – | – |
| COC(=O)Nc1nc2cc(C(=O)c3ccc(F)cc3)ccc2[nH]1 [FLUBENDAZOLE] | Not Active | Not Active | Not Active | Not Active | Not Active | Not Active | Not Active | Not Active | – | – | – | – | – | – | – | – |
| COc1ccnc(C[S+]([O-])c2nc3ccc(OC(F)F)cc3[nH]2)c1OC (stereo not drawn) [PANTOPRAZOLE] | Not Active | Not Active | Not Active | Not Active | Not Active | Not Active | Not Active | Not Active | – | – | – | – | – | – | – | – |
| CCc1ccc(CCOc2ccc(CC3SC(=O)NC3=O)cc2)nc1 (stereo not drawn) [PIOGLITAZONE] | Not Active | Not Active | – | – | Not Active | Not Active | Not Active | Not Active | 86900 | 22100 | – | – | – | – | – | – |
| CC[C@H]1[C@@H]2C[C@H]3[C@@H]4N(C)c5ccccc5[C@]45C[C@@H]([C@@H]2[C@H]5O)N3[C@@H]1O [AJMALINE] | Not Active | Not Active | Not Active | Not Active | Not Active | Not Active | Not Active | Not Active | – | – | – | – | – | – | – | – |
| CNC1=Nc2ccc(Cl)cc2C(c2ccccc2)=[N+]([O-])C1 [CHLORDIAZEPOXIDE] | Not Active | Not Active | Not Active | Not Active | Not Active | Not Active | Not Active | Not Active | – | – | – | – | – | – | – | – |
| C[C@@H]1O[C@@H](O[C@H]2C[C@@H](O)[C@]3(CO)[C@H]4[C@H](O)C[C@]5(C)[C@@H](C6=CC(=O)OC6)CC[C@]5(O)[C@@H]4CC[C@]3(O)C2)[C@H](O)[C@H](O)[C@H]1O [OUABAIN] | Not Active | Not Active | Not Active | Not Active | Not Active | Not Active | Not Active | Not Active | – | – | – | – | – | – | – | – |
| Cc1cccc(C)c1NC(=O)C1CCCCN1C (stereo not drawn) [MEPIVACAINE] | Not Active | Not Active | Not Active | Not Active | Not Active | Not Active | Not Active | Not Active | – | – | – | – | – | – | – | – |
| CC1=NN(c2ccccc2)C(=O)C1 [EDARAVONE] | Not Active | Not Active | Not Active | Not Active | Not Active | Not Active | Not Active | Not Active | – | – | – | – | – | – | – | – |
| CC(C)C[C@H]1C(=O)N2CCC[C@H]2[C@]2(O)O[C@](NC(=O)[C@@H]3C=C4c5cccc6[nH]cc(c56)C[C@H]4N(C)C3)(C(C)C)C(=O)N12 [ERGOCRYPTINE] | Not Active | Not Active | Not Active | Not Active | Not Active | Not Active | – | Not Active | – | – | 14 | 7.94 | – | – | – | – |
| CCOC(=O)c1ncn2c1CN(C)C(=O)c1cc(F)ccc1-2 [FLUMAZENIL] | Not Active | Not Active | Not Active | Not Active | Not Active | Not Active | Not Active | Not Active | – | – | – | – | – | – | – | – |
| COBALTOUS CHLORIDE | Not Active | Not Active | Not Active | Not Active | Not Active | Not Active | Not Active | Not Active | – | – | – | – | Not Active | Not Active | Not Active | Not Active |
| COLISTIN | Not Active | Not Active | Not Active | Not Active | Not Active | Not Active | Not Active | Not Active | – | – | – | – | Not Active | Not Active | Not Active | Not Active |
| CCN(C(C)=O)c1cccc(-c2ccnc3c(C#N)cnn23)c1 [ZALEPLON] | Not Active | Not Active | Not Active | Not Active | Not Active | Not Active | Not Active | Not Active | – | – | – | – | – | – | – | – |
| CN1C(=O)CN=C(c2ccccc2)c2cc([N+](=O)[O-])ccc21 [NIMETAZEPAM] | Not Active | Not Active | Not Active | Not Active | Not Active | Not Active | Not Active | Not Active | – | – | – | – | – | – | – | – |
| C[C@@H]1C/C=C/C=C/C=C/C=C/[C@H](O[C@@H]2O[C@H](C)[C@@H](O)[C@H](N)[C@@H]2O)C[C@@H]2O[C@](O)(C[C@@H](O)C[C@H]3O[C@@H]3/C=C/C(=O)O1)C[C@H](O)[C@H]2C(=O)O [NATAMYCIN] | Not Active | Not Active | Not Active | Not Active | Not Active | Not Active | Not Active | Not Active | – | – | – | – | – | – | – | – |
| ClC(Cl)(Cl)Cl [CARBON TETRACHLORIDE] | Not Active | Not Active | Not Active | Not Active | Not Active | Not Active | Not Active | Not Active | – | – | – | – | – | – | – | – |
| CN(C)CCC=C1c2ccccc2CCc2ccccc21 [AMITRIPTYLINE] | Not Active | Not Active | Not Active | Not Active | Not Active | Not Active | – | Not Active | – | – | 76 | 42 | – | – | – | – |
| C[C@]12CC[C@H]3[C@@H](CCC4=CC(=O)CC[C@@H]43)[C@@H]1CC[C@@H]2O [NANDROLONE] | Not Active | Not Active | Not Active | Not Active | Not Active | Not Active | Not Active | Not Active | – | – | – | – | – | – | – | – |

Reference: ChEMBL document CHEMBL1909046, “DrugMatrix in vitro pharmacology data”
